Experimental data published in the supplement of paper PMC5908809.

Legend:
Test in all cases: relative IC50 (inflection point of fitted viability curve, relative to fitted max inhibition); higher = less sensitive
Settings in all cases: 72 h
[1] = test system: normal primary NK cells, pool 1 (3 donors) (IL-2 2.5 ng/mL)
Procedure: (§1)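 Drug sensitivity and resistance testing: 5 concentrations over a 10,000-fold range, 72 h at 37 °C, viability by CellTiter-Glo normalised to DMSO and benzethonium chloride controls. IC50 is the inflection point of a logistic fit (min fixed at 0, max fitted), so it is relative to the fitted maximal inhibition. Kept only where fitted max inhibition is at least 50%.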

[2] = test system: normal primary NK cells, pool 1 (3 donors), resting (IL-2 0 ng/mL)
Procedure: as §1

[3] = test system: KHYG-1 (IL-2 2.5 ng/mL)
Procedure: as §1

[4] = test system: NK-YS (IL-2 2.5 ng/mL)
Procedure: as §1

[5] = test system: SNK-6 (IL-2 2.5 ng/mL)
Procedure: as §1

[6] = test system: YT (IL-2 2.5 ng/mL)
Procedure: as §1

[7] = test system: normal primary NK cells, pool 2 (3 donors) (IL-2 2.5 ng/mL)
Procedure: as §1

[8] = test system: DERL-7 (IL-2 2.5 ng/mL)
Procedure: as §1

[9] = test system: KAI3 (IL-2 2.5 ng/mL)
Procedure: as §1

[10] = test system: normal primary NK cells, pool 3 (3 donors) (IL-2 2.5 ng/mL)
Procedure: as §1

[11] = test system: IMC-1 (IL-2 20 ng/mL)
Procedure: as §1

[12] = test system: NK-92 (IL-2 2.5 ng/mL)
Procedure: as §1

[13] = test system: NKL (IL-2 2.5 ng/mL)
Procedure: as §1

Compound	relative IC50 [1] [nM]	relative IC50 [2] [nM]	relative IC50 [3] [nM]	relative IC50 [4] [nM]	relative IC50 [5] [nM]	relative IC50 [6] [nM]	relative IC50 [7] [nM]	relative IC50 [8] [nM]	relative IC50 [9] [nM]	relative IC50 [10] [nM]	relative IC50 [11] [nM]	relative IC50 [12] [nM]	relative IC50 [13] [nM]
NC(=O)c1ccc(I)c([N+](=O)[O-])c1 [Iniparib]	1620	1360											
CN(c1ccccc1CNc1nc(Nc2ccc3c(c2)CC(=O)N3)ncc1C(F)(F)F)S(C)(=O)=O	1130	4290	553	1030	1600	1470	1720	609	1380	1950	1130	1710	715
CCN(CC)C(=S)SSC(=S)N(CC)CC [Disulfiram]	323	309	2300	987	40300	25700	224	194	16200	320	1590	30100	256
O=C(Nc1ccncc1)C(=O)c1cn(Cc2ccc(Cl)cc2)c2ccccc12 [Indibulin]	> 10000		103	77.7	2.97	131		922	45		339	48.5	85.6
COc1cc([C@@H]2c3cc4c(cc3[C@@H](O[C@@H]3O[C@@H]5CO[C@@H](c6cccs6)O[C@H]5[C@H](O)[C@H]3O)[C@H]3COC(=O)[C@H]23)OCO4)cc(OC)c1O [Teniposide]	534	139	27.8	13.3	32	122	965	15.5	18.8	1250	20.3	84.1	10
Cc1[nH]c2ccccc2c1CCNCc1ccc(/C=C/C(=O)NO)cc1 [Panobinostat]	12.9	5.89	16.3	17.4	14.3	21.2	7.38	12.5	5.94	13.5	29.9	13.4	8.13
CN1CC[C@H](c2c(O)cc(O)c3c(=O)cc(-c4ccccc4Cl)oc23)[C@H](O)C1 [Alvocidib]	182	370	136	142	8.41	133	150	174	55.3	164	410	117	126
COc1cc(Nc2ncc(F)c(Nc3ccc4c(n3)NC(=O)C(C)(C)O4)n2)cc(OC)c1OC [Tamatinib]		> 10000	1340	1650	3590	2580			536	2800	4100	2180	992
CN1CCN(c2cc(C(=O)Nc3ccc4c(c3)-c3c(c(C(N)=O)nn3-c3ccc(F)cc3)CC4)c(Cl)cn2)CC1 [PHA 408]	2590	2140	2990	2440	1620	1920	2100	1350	940	2780	2970	2090	1620
Nc1ncnc2c1nc(N)n2[C@@H]1O[C@H](CO)[C@@H](O)[C@H]1O [8-amino-adenosine]	6680	13100	836	757	68.1	862	5810	489	320	6780	1080	431	360
CN(c1ncccc1CNc1nc(Nc2ccc3c(c2)CC(=O)N3)ncc1C(F)(F)F)S(C)(=O)=O	2320	4770	1090	1310	2870	1530	3440	2000	1930	3740	2960	3040	1540
COc1cc2c(NC3CCN(C(C)C)CC3)nc(C3CCCCC3)nc2cc1OCCCN1CCCC1 [UNC0638]	3450	2290	2540	2570	1600	3050	3070	2120	528	3360	2780	1660	2290
O=C(O)C(=O)O.[NH-][C@@H]1CCCC[C@H]1[NH-].[Pt+2] [Oxaliplatin]							9290			9130	9490		
CCn1c(-c2nonc2N)nc2cnc(Oc3cccc(NC(=O)c4ccc(OCCN5CCOCC5)cc4)c3)cc21	1540	1660	1120		50.4		1970	63.4	1280	1610		287	1070
Nc1ncnc2c1nc(Cl)n2[C@@H]1O[C@H](CO)[C@@H](O)[C@H]1O [8-chloro-adenosine]	5980	5340	2820	1440	330	1870	6010	641	579	7030	19300	2610	4720
CCOc1cc2ncc(C#N)c(Nc3ccc(OCc4ccccn4)c(Cl)c3)c2cc1NC(=O)/C=C/CN(C)C [Neratinib]		364						216				206	
CCN(CC)CCCC(C)Nc1c2ccc(Cl)cc2nc2ccc(OC)cc12 (stereo not drawn) [Mepacrine]							1220			1550	1500		
CN(C)C(=O)c1cc2cnc(Nc3ccc(N4CCNCC4)cn3)nc2n1C1CCCC1 [NVP-LEE011]	2200	630	1060										
S=c1[nH]cnc2nc[nH]c12 [Mercaptopurine]		> 10000	1420	725	137	1410			2160		1590	393	
CCn1c(-c2nonc2N)nc2c(C#CC(C)(C)O)ncc(OC[C@H]3CCCNC3)c21	2160	1730					2190	269		1870			
C[C@@H]1C=C2C(=O)O[C@@H]3CC[C@H](C1)[C@]23O [Galiellalactone]	4800	3720	5240	3660	3970	8550	5560	3110	3340	7360		5040	
CC(=O)c1c(C)c2cnc(Nc3ccc(N4CCNCC4)cn3)nc2n(C2CCCC2)c1=O [Palbociclib]	3580	4040	279	413			2850	1380	3090	3430	2620	1780	1550
C[C@H]1C[C@@H]2[C@H]([C@@H](O)C[C@@]3(C)[C@H]2CC[C@]3(O)C(=O)CO)[C@@]2(C)C=CC(=O)C=C12 [Methylprednisolone]	33.4	9.66	197			164	41.7	22.1		88.8	> 10000		13.3
